The values that follow come from patent US7763669B2, “Low-viscosity, radiation-curable formulation for producing adaptive earpieces” (Dreve-Otoplastik GmbH, priority 2004, dated 2010).

Data set [1] is described as follows: Flexural strength, modulus of elasticity and elongation per EN ISO 178 (Zwick 1 test unit) on post-cured test pieces. It is filed as physicochemical. How it is done:
The flexural strength, modulus of elasticity, and elongation were determined in accordance with EN ISO 178 (1996), using a Zwick 1 test unit from Zwick. The test pieces were post-cured for 2×7 min, using the PCU stroboscope irradiation unit from Dreve.
(§1) Table 2 lists the parameters for the above-described resins that are relevant for the stereolithographic process. All viscosity measurements were performed at 23° C. using a CVO rheometer from Bohlin Instruments. The flexural strength, modulus of elasticity, and elongation were determined in accordance with EN ISO 178 (1996), using a Zwick 1 test unit from Zwick. For determining the Ec and Dp values using the above-described windowpane method, in each case the average values were determined for 10 windowpane test pieces. The test pieces were produced using a Viper si2 SLA system (3D Systems) equipped with a Nd:YVO4 solid-state laser. The green compacts were post-cured for 2×7 min, using the Fototec PCU stroboscope irradiation unit from Dreve.

A short description of data set [2]: Windowpane method for critical energy Ec and laser penetration depth Dp. It is filed as physicochemical. Particulars: small quantities added to resin formulation; for Influence of inhibitor addition on penetration depth of the laser beam Dp: FIGS. 3 and 5; for Influence of inhibitor addition on critical energy Ec: FIGS. 4 and 6. How it is done: The influence of the concentration of phenothiazine (PTZ) and 2,2-diphenyl-1-picrylhydrazyl radical (DPPH) in the formulations of Examples 1 and 2 on the penetration depth of the laser beam and the critical energy is illustrated in FIGS. 3 through 6. The laser penetration depth and the critical energy were determined using the windowpane method described by P. F. Jacobs and D. T. Reid in Rapid Prototyping & Manufacturing, Society of Manufacturing Engineers, Dearborn, Mich., 1992, 1st Ed., pp. 263-280. […] This influence of the inhibitors phenothiazine (PTZ) and 2,2-diphenyl-1-picrylhydrazyl radical (DPPH) on the is relevant parameter Ec (critical energy, mJ·cm^−2) and Dp (laser penetration depth, mils) for the stereolithographic resin differs from the influence of the inhibitors, such as p-methoxyphenol, added to the stereolithographic resins corresponding to the prior art (L. E. Levy, J. Polym. Sci., Part A, Polym. Chem. 30 (1992), 569ff). For example, in comparison to p-methoxyphenol the parameters Ec and Dp may be linearly adjusted in a wider range by small concentrations of the inhibitors. This is of great advantage, particularly for the production of such resins and adjustment of the above-described parameters. From a technical production standpoint this may be used to adjust the laser penetration depth that has a direct influence on the accuracy of the production process. For example, performing curing over a value of laser penetration depth that exceeds the desired layer thickness for the process reduces the resolution of the process. High values of the laser penetration depth play an important role in particular for transparent stereolithographic resins that preferably are used for producing otoplastic parts. In the case of stereolithographic resins in the medical field, however, in particular stereolithographic resins for the production of the above-described adaptive earpieces, the accuracy of the production, and thus, the fit, of the molded body is of paramount importance.
as §1

[3] abbreviates: resin formulation from Example 2, inhibitor concentration 0.01 % by wt.
[4] abbreviates: resin formulation from Example 2, inhibitor concentration 0.025 % by wt.
Where [5] appears, read: resin formulation from Example 2, inhibitor concentration 0.05 % by wt.
Where [6] appears, read: resin formulation from Example 2, inhibitor concentration 0.10 % by wt.
Setting [7] is: resin formulation from Example 2, inhibitor concentration 0.15 % by wt.

Take “2,2-diphenyl-1-picrylhydrazyl radical [DPPH]”: in data set [1] (setting [3]), the Elongation to break was 13%, the Flexural strength was determined as 61 N · mm^−2 and the Modulus of elasticity amounted to 1452 N · mm^−2. Besides, in data set [1] (setting [4]), the Elongation to break is reported as 11%, the Flexural strength is reported as 69 N · mm^−2 and the Modulus of elasticity was 1324 N · mm^−2. Also, in data set [1] (setting [5]), the Elongation to break turned out to be 10%, the Flexural strength was 66 N · mm^−2 and the Modulus of elasticity came out at 1277 N · mm^−2. Moreover, in data set [2], the “Influence of inhibitor addition on penetration depth of the laser beam Dp” value is “linear decrease” and the “Influence of inhibitor addition on critical energy Ec” value is “sharp, essentially linear increase”.
In data set [1] (setting [4]), `c1ccc2c(c1)Nc1ccccc1S2` [Phenothiazine, phenothiazine] gave an Elongation to break of 15%, a Flexural strength of 95 N · mm^−2 and a Modulus of elasticity of 1867 N · mm^−2. In data set [1] (setting [5]), this compound registered an Elongation to break of 13%, a Flexural strength of 95 N · mm^−2 and a Modulus of elasticity of 1989 N · mm^−2. Moreover, in data set [1] (setting [6]), the Elongation to break is 12%, the Flexural strength is on record as 101 N · mm^−2 and the Modulus of elasticity is 2007 N · mm^−2. Further, in data set [1] (setting [7]), the Elongation to break turned out to be 10%, the Flexural strength is on record as 89 N · mm^−2 and the Modulus of elasticity is reported as 1832 N · mm^−2. Besides, in data set [2], the “Influence of inhibitor addition on penetration depth of the laser beam Dp” value is listed as “linear decrease” and the “Influence of inhibitor addition on critical energy Ec” value is on record as “sharp, essentially linear increase”.
